The values below come from patent US5231100A, “Antineoplastic modified imidazoacridines” (British Technology Group Limited, priority 1991, dated 1993).

The structures appear in SMILES notation. Where two headings read alike, the source gives them in different places.

In test [1] the test system is mouse L1210 leukemia cells. Nature of the test: In vitro cytotoxicity, 48 h growth inhibition (cell protein content). Type of test: cell-based. How it is done: The mouse L1210 leukemia cells (RPM1, USA) are grown in RPM1 1640 medium supplemented with 5% fetal calf serum and penicillin (1,000,000 units litre) plus streptomycin (100 mg/litre) in controlled air-5% CO2 humidified atmosphere at 37° C. L1210 mouse leukemia cells are seeded at a density of 5.10^4 cells/ml. The tested compounds after being dissolved in 50% ethanol are added, at four different concentrations, to the cell suspensions. […] 1974, 24, 1971.

For a further test, the system named is P388 lymphotic leukemia. Briefly: In vivo antileukemic evaluation, P388 leukemia in BDF1 mice. The protocol:
BDF1 mice are injected ip with 10^6 P388 lymphotic leukemia cells on day O and treated ip on days 1-5 in accordance with the protocols described by the National Cancer Institute: Geran, R. I.; Greenberg, R. H.; MacDonald, M. M.; Schumacher, A. M.; Abbot, B. J. Cancer Chemother, Re., Part 3, 1972,3,1. The mean survival time (MST) for each treatment group (eight mice) is calculated and the percent of T/C was determined by using the following formula: % T/C=(MST treated)/(MST control) 100.

The mark [2] stands for this setting: L1210 cells, 48 h, 50% growth inhibition, read-out: in vitro IC50.
[3] abbreviates: L1210 cells, 48 h, 50% growth inhibition, read-out: in vitro IC50 (μg/ml).
[4] abbreviates: P388 ip, treated ip days 1-5, at opt dose, first or only value.
[5] abbreviates: P388 ip, treated ip days 1-5, at opt dose, repeated independent multidose assay (footnote c).

With `CCN(CC)CCCNc1ccc2ncn3c4ccc(O)cc4c(=O)c1c23` [Example 15], the IC50 in test [1] (setting [2]) worked out at 0.18 µM; in test [1] (setting [3]), 0.08 µg/mL. In the test with P388 lymphotic leukemia (setting [4]), the “% T/C (mean survival time treated/control)” value was 309%. In the test on P388 lymphotic leukemia (setting [5]), the “% T/C (mean survival time treated/control), second value” was determined as 230%.
The corresponding values for `Cc1nc2ccc(NCCN(C)C)c3c(=O)c4cc(O)ccc4n1c23` [Example 10] are 0.135 µM, 0.06 µg/mL, 200% and 250%.
With `CCN(CC)CCNc1ccc2ncn3c4ccc(OC)cc4c(=O)c1c23.Cl.Cl` [Example 1, 5-[[2-(Diethylamino)ethyl]amino]-8-methoxyimidazo[4,5,1-de] acridin-6-one Dihydrochloride], the IC50 in test [1] (setting [2]) was determined as 1.8 µM; in test [1] (setting [3]) it was 0.78 µg/mL. For the same compound, in the test with P388 lymphotic leukemia (setting [4]), the “% T/C (mean survival time treated/control)” value was determined as 183%. Moreover, the “% T/C (mean survival time treated/control), second value” with P388 lymphotic leukemia (setting [5]) is recorded as 209%.
For `CCN(CC)CCNc1ccc2nc(C)n3c4ccc(OC)cc4c(=O)c1c23` [Example 4], in that order: 1.55 µM, 0.7 µg/mL, 136% and 120%.
Consider `COc1ccc2c(c1)c(=O)c1c(NCCN(C)C)ccc3ncn2c31` [Example 2], for which the IC50 in test [1] (L1210, 48 h, read-out: in vitro IC50 (μM)) was 1.6 µM; in test [1] (L1210, 48 h, read-out: in vitro IC50 (μg/ml)), 0.65 µg/mL. Moreover, the “% T/C (mean survival time treated/control)” value in the test on P388 lymphotic leukemia (setting [4]) came to 177%. The “% T/C (mean survival time treated/control), second value” in the test on P388 lymphotic leukemia (setting [5]) came to 136%.
As for `CCN(CC)CCCNc1ccc2nc(C)n3c4ccc(OC)cc4c(=O)c1c23` [Example 8], the IC50 in test [1] (setting [2]) was determined as 1.4 µM; in test [1] (setting [3]), 0.7 µg/mL. Besides, the “% T/C (mean survival time treated/control)” value with P388 lymphotic leukemia (setting [4]) turned out to be 108%.
Take `COc1ccc2c(c1)c(=O)c1c(NCCCN(C)C)ccc3ncn2c31` [Example 5]: the IC50 in test [1] (setting [2]) came to 8.25 µM; in test [1] (setting [3]), 3.5 µg/mL. Moreover, the “% T/C (mean survival time treated/control)” value in the test with P388 lymphotic leukemia (setting [4]) came to 164%.
For the compound `CCN(CC)CCNc1ccc2nc(C)n3c4ccc(O)cc4c(=O)c1c23` [Example 12], the IC50 stood at 0.25 µM in test [1] (setting [2]) and 0.11 µg/mL in test [1] (setting [3]). In addition, in the test on P388 lymphotic leukemia (setting [4]), the “% T/C (mean survival time treated/control)” value is 280%. In the test on P388 lymphotic leukemia (setting [5]), the “% T/C (mean survival time treated/control), second value” amounted to 290%.
The corresponding values for `CCN(CC)CCCNc1ccc2nc(C)n3c4ccc(O)cc4c(=O)c1c23` [Example 16] are 0.89 µM, 0.4 µg/mL, 150% and 155%.
Take `Cc1nc2ccc(NCCCN(C)C)c3c(=O)c4cc(O)ccc4n1c23` [Example 14]: the IC50 in test [1] (setting [2]) was determined as 0.23 µM; in test [1] (setting [3]), 0.1 µg/mL. Further, the “% T/C (mean survival time treated/control)” value in the test on P388 lymphotic leukemia (setting [4]) was determined as 255%.
For `CCN(CC)CCCNc1ccc2ncn3c4ccc(OC)cc4c(=O)c1c23` [Example 7], in that order: 2.5 µM, 1.1 µg/mL and 142%.
Turning to `CN(C)CCCNc1ccc2ncn3c4ccc(O)cc4c(=O)c1c23` [Example 13], the IC50 amounted to 0.034 µM in test [1] (setting [2]) and 0.014 µg/mL in test [1] (setting [3]). Further, the “% T/C (mean survival time treated/control)” value with P388 lymphotic leukemia (setting [4]) is reported as 183%.
For the compound `COc1ccc2c(c1)c(=O)c1c(NCCCN(C)C)ccc3nc(C)n2c31` [Example 6], the IC50 is 3.2 µM in test [1] (setting [2]) and 1.4 µg/mL in test [1] (setting [3]). In the test on P388 lymphotic leukemia (setting [4]), the “% T/C (mean survival time treated/control)” value is listed as 136%.
As to `CN(C)CCNc1ccc2ncn3c4ccc(O)cc4c(=O)c1c23` [Example 9], the IC50 came out at 0.048 µM in test [1] (setting [2]) and 0.02 µg/mL in test [1] (setting [3]). The “% T/C (mean survival time treated/control)” value in the test with P388 lymphotic leukemia (setting [4]) was determined as 210%. In the test on P388 lymphotic leukemia (setting [5]), the “% T/C (mean survival time treated/control), second value” was 210%.
On to `COc1ccc2c(c1)c(=O)c1c(NCCN(C)C)ccc3nc(C)n2c31` [Example 3], for which the figures for the IC50 in test [1] (setting [2]) and in test [1] (setting [3]) were 0.77 µM and 0.34 µg/mL, respectively. In the test on P388 lymphotic leukemia (setting [4]), the “% T/C (mean survival time treated/control)” value is on record as 127%.
Consider `CCN(CC)CCNc1ccc2ncn3c4ccc(O)cc4c(=O)c1c23` [Example 11], for which the IC50 in test [1] (setting [2]) was determined as 0.031 µM; in test [1] (setting [3]), 0.013 µg/mL. Moreover, in the test with P388 lymphotic leukemia (ip), the “% T/C (mean survival time treated/control)” value came out at 211%. In addition, the “% T/C (mean survival time treated/control), second value” in the test on P388 lymphotic leukemia (ip) is on record as 175%.
